Laboratory results taken from patent publication US10138252B1, “Lactones” (Purdue Research Foundation, priority 2017, dated 2018).
Converted amounts (≈) assume the structure as drawn.

How the values were obtained:
[1] = Antifungal broth microdilution MIC assay; conditions: read-out: minimum inhibitory concentrations
[2] = tested on: Clostridium difficile; experiment: Broth microdilution MIC against C. difficile strains; conditions: Clostridioides difficile, BAA1870, 48 h, read-out: minimum inhibitory concentrations (MIC)

Row | Compound | MIC [1] | MIC [2]
1 | Cc1ccc(S(=O)(=O)N2CCC3=C2COC3=O)cc1 [Example 11, 1-tosyl-1,2,3,6-tetrahydro-4H-furo[3,4-b]pyrrol-4-one] | 64 to 128 µM (≈ 17.9 to 35.8 µg/mL) | 
2 | Cc1ccc(S(=O)(=O)N2CCC3=C2C(c2cccc(Br)c2)OC3=O)cc1 (stereo not drawn) [Example 8, 6-(3-bromophenyl)-1-tosyl-1,2,3,6-tetrahydro-4H-furo[3,4-b]pyrrol-4-one] | 64 to 128 µM (≈ 27.8 to 55.6 µg/mL) | 64 to 128 µM (≈ 27.8 to 55.6 µg/mL)
3 | Cc1ccc(S(=O)(=O)N2CCC3=C2C2(COC2)OC3=O)cc1 [Example 19, 1-tosyl-2,3-dihydrospiro[furo[3,4-b]pyrrole-6,3′-oxetan]-4(1H)-one] | 64 to 128 µM (≈ 20.6 to 41.1 µg/mL) | 64 to 128 µM (≈ 20.6 to 41.1 µg/mL)
4 | CCCC1OC(=O)/C1=C1\CCCN1S(=O)(=O)c1ccc(C)cc1 (stereo not drawn) [Example 22, (E)-4-propyl-3-(1-tosylpyrrolidin-2-ylidene)oxetan-2-one] | 64 to 128 µM (≈ 21.5 to 42.9 µg/mL) | 
